The values below come from patent publication US7888338B2, “7-(2-cyclohexylidene-ethylidene)-spiro[4.5]decanes” (K.U. Leuven Research & Development, priority 2004, dated 2011).

For data set [1], the system named is MCF-7 cells. As to the kind of experiment: Measurement of cell proliferation, breast carcinoma cells MCF-7, [3H]thymidine incorporation. In kind it is cell-based. The conditions noted are these: cell proliferation ([3H]thymidine incorporation), relative to control 1α,25(OH)2D3 = 100. As for the experimental part:
Selected compounds of the present invention are evaluated for their effect on cell proliferation. Malignant MCF-7 cells are cultured in DMEM nutrient mix F12 (HAM) medium which is supplemented with 10% heat inactivated FCS, glutamine (2 mM), penicillin (100 units/mL) and streptomycin (0.1 mg/mL). The cultures are maintained at 37° C. in an atmosphere of humidified air containing 5% CO2. The MCF-7 cells are seeded at approximately 5×10^3 cells/well in the DMEM modified medium in a 96-well microtiter plate. […] Finally, 1 μCi of [^3H]thymidine is added to each well and the cells are harvested after a further 4 hour incubation period. The cells are harvested with a Parckard Harvester and the cell count measured by a Packard Topcount System.

The target of data set [2] is T1, Vitamin D Receptor (VDR) (Sus scrofa, UniProt A3RGC1).
T1 sequence (A3RGC1 1-427): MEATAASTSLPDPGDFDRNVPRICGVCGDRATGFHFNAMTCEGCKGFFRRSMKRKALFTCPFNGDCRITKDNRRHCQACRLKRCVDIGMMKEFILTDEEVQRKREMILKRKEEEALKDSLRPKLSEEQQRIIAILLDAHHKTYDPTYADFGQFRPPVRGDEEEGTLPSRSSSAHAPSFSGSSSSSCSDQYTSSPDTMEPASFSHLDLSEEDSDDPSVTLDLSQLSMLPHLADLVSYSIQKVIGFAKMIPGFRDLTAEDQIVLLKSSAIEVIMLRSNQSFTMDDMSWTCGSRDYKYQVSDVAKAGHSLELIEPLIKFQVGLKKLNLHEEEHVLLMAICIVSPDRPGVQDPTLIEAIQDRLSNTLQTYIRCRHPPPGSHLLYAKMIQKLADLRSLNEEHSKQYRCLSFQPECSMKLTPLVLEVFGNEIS
The conditions noted are these: relative affinity from concentration displacing 50% of [3H]1α,25(OH)2D3; 1α,25(OH)2D3 assigned 100%; 4° C., 20 hours.

Data set [3] has as its target T2, Human Vitamin D Binding Protein (hDBP) (Homo sapiens, UniProt P02774).
T2 sequence (P02774 17-474): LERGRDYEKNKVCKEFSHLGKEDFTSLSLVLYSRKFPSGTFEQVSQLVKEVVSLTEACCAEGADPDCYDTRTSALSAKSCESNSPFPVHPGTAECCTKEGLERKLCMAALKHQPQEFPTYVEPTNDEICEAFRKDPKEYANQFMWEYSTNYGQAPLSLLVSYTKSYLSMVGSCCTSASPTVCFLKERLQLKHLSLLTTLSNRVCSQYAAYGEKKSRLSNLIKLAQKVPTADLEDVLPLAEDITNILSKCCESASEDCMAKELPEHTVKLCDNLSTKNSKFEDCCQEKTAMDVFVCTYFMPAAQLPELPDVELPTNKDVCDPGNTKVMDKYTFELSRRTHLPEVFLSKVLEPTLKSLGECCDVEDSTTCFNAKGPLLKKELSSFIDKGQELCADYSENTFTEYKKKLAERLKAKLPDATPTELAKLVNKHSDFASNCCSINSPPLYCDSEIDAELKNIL
The data set can be described thus: Affinity for Human Vitamin D Binding Protein (hDBP), displacement of [3H]1α,25(OH)2D3. The conditions noted are these: relative affinity from concentration displacing 50% of [3H]1α,25(OH)2D3, 1α,25(OH)2D3 assigned 100%, 4° C. As to the method:
The solution is incubated for 3 hours at 4° C. Final phase separation is obtained by adding 0.5 mL of cold destran-coated charcoal.
A general note: In a radioligand displacement assay an active substance lowers the binding of a labelled ligand.

The subject of data set [4] is HL-60 cells. The data set can be described thus: Promyelocytic leukemia cells (HL-60), differentiation markers (NBT reduction assay). The class given is cell-based. The conditions noted are these: relative to control 1α,25(OH)2D3 = 100. As for the experimental part:
Selected compounds of the present invention are evaluated for their effect on cell proliferation. Falcon tissue chambers are seeded with 4×10^4 cells/cm^2 of HL-60 cells using RPMI 1640 medium supplemented with 20% FCS and gentamycin (50 μg/mL) in a final cell volume of 5 mL. The cultures are maintained at 37° C. in an atmosphere of humidified air containing 5% CO2. […] After 4 days, the dishes are shaken to lose adherent cells. The cells are then washed twice in RPMI medium, counted, and then assayed for differentiation markers (NBT reduction assay). Superoxide production is measured as NBT reducing activity as described by Ostrem. V. K et al. Proc Natl Acad Sci USA,. 1987 84: 2610-2614. HL-60 cells at 1×10^6/mL are mixed with an equal volume of freshly prepared solution of phorbol 12-myristate 13-acetate (200 ng/mL) and NBT ([…]) and incubated for 30 minutes at 37° C. The percentage of cells containing black formazan deposits is determined using a hemacytometer.

The nature of data set [5]: In vivo determination of calcium levels (serum calcium, femur calcium). Details: species or system NMRI mice. Conditions: for Femur Ca: NMRI mice, IP daily for 7 consecutive days. The source says: . Table VII presents the serum and femur calcium levels in mice after intraperitoneal injections after 7 consecutive days.

In data set [1], `CC(C)(O)CCCC1CCC2(CCC/C(=C/C=C3C[C@@H](O)C[C@H](O)C3)C2)C1` (stereo in doubt) [(1R,3R)-5-{2-[(2S, 5R)-2-(4-hydroxy-4-methylpentyl)-spiro[4.5]dec-(7Z)-ylidene]-ethylidene}-cyclo-hexane-1,3-diol] yielded an MCF-7 of 8. Further, the VDR binding % in data set [2] is reported as 0.4%. In data set [3], this compound displayed a hDBP binding % of 3%. Further, the HL-60 in data set [4] was 0.9.
In data set [4], `C=C1/C(=C\C=C2/CCC[C@]3(C)[C@@H]([C@H](C)CCCC(C)(C)O)CC[C@@H]23)C[C@@H](O)C[C@@H]1O` [1α,25(OH)2D3, 1α,25-dihydroxyvitamin D3] yielded an HL-60 of 100. Further, the “Femur Ca” value is reported as 10.9 mg in data set [5] (0.1 μg/kg/d), 10.3 mg in data set [5] (0.2 μg/kg/d) and 8.9 mg in data set [5] (0.4 μg/kg/d). The estimated serum calcium in data set [5] (as compared with 1α,25(OH)2D3 (control assigned 100%), mice, IP daily, 7 consecutive days) was 100%.
Regarding `CC(C)(O)CCC[C@H]1CC[C@]2(CCC/C(=C\C=C3C[C@@H](O)C[C@H](O)C3)C2)C1` [(1R,3R)-5-{2-[(2R,5S)-2-(4-Hydroxy-4-methyl-pentyl)-spiro[4.] [(1R,3R)-5-{(E)-(2R,5S))-2-[2-(4-hydroxy-4-methylpentyl)-spiro[4.5]dec-7-ylidene]-ethylidene}-cyclohexane-1,3-diol], the MCF-7 in data set [1] is listed as 9. Moreover, in data set [2], the VDR binding % came to 0.4%. Moreover, in data set [3], the hDBP binding % amounted to 0%. In data set [4], this compound showed an HL-60 of 4.
In the same order, the values of `CC(C)(O)CCC[C@H]1CC[C@]2(CCC/C(=C\C=C3C[C@@H](O)C[C@H](O)C3)C2)C1` [(1R,3R)-5-{2-[(2S,5R)-2-(4-Hydroxy-4-methyl-pentyl)-spiro[4.] [(1R,3R)-5-{2-[(2S,5R)-2-(4-hydroxy-4-methyl-pentyl)-spiro[4.5]dec-(7E)-ylidene]-ethylidene}-cyclohexane-1,3-diol] are 50, 0.8%, 3% and 10.
In the same order, the values of `CC(C)(O)CCC[C@H]1CC[C@@]2(CCC/C(=C\C=C3C[C@@H](O)C[C@H](O)C3)C2)C1` [(1R,3R)-5-{2-[(2S,5S)-2-(4-Hydroxy-4-methyl-pentyl)-spiro[4.5]dec-(7E)-ylidene]-ethylidene}-cyclo-hexane-1,3-diol] are 20, 0.7%, 0% and 8.
In the same order, the values of `CC(C)(O)CCC[C@H]1CC[C@@]2(CCC/C(=C/C=C3C[C@@H](O)C[C@H](O)C3)C2)C1` [(1R,3R)-5-{2-[(2S,5S)-2-(4-Hydroxy-4-methyl-pentyl)-spiro[4.5]dec-(7Z)-ylidene]-ethylidene}-cyclo-hexane-1,3-diol] are 3, 0%, 0% and 0.5.
Take `CC(C)(O)CCC[C@@H]1CC[C@]2(CCC/C(=C\C=C3C[C@@H](O)C[C@H](O)C3)C2)C1` [(1R,3R)-5-{(E)-(2R,5R))-2-[2-(4-hydroxy-4-methylpentyl)-spiro[4.5]dec-7-ylidene]-ethylidene}-cyclohexane-1,3-diol]: in data set [1], the MCF-7 came out at 450. The same compound had a VDR binding % in data set [2] of 10%. Further, the hDBP binding % in data set [3] worked out at 3%. The HL-60 in data set [4] came to 200. Moreover, the “less calcemic than the control” value in data set [5] (mouse, in vivo) is listed as “approximately 200 times”. For the same compound, the estimated serum calcium in data set [5] (mouse, in vivo, ip) is reported as 0.5%.
On to `CC(C)(O)CCC[C@@H]1CC[C@]2(CCC/C(=C/C=C3C[C@@H](O)C[C@H](O)C3)C2)C1` [(1R,3R)-5-{(Z)-(2R,5R))-2-[2-(4-hydroxy-4-methylpentyl)-spiro[4.5]dec-7-ylidene]-ethylidene}-cyclohexane-1,3-diol], for which the MCF-7 in data set [1] amounted to 75. This compound also came in with a VDR binding % in data set [2] of 0.8%. The compound also displayed a hDBP binding % in data set [3] of 3%. The compound also returned an HL-60 in data set [4] of 8.
In the case of `CC(C)(O)CCC[C@H]1CC[C@]2(CCC/C(=C/C=C3C[C@@H](O)C[C@H](O)C3)C2)C1` [(1R,3R)-5-{(Z)-(2R,5S))-2-[2-(4-hydroxy-4-methylpentyl)-spiro[4.5]dec-7-ylidene]-ethylidene}-cyclohexane-1,3-diol], in data set [1], the MCF-7 worked out at 4. In addition, the VDR binding % in data set [2] is on record as 0%. The hDBP binding % in data set [3] is 0%. For the same compound, the HL-60 in data set [4] was under 1.
